Laboratory results published in US12479845B2, “Imidazopyridine derivative compounds and use of same” (HANMI PHARM. CO., LTD., priority 2019, dated 2025).

Test system: NCI-H1417 cells
Assay: Cell growth suppression test (CellTiter-Glo Luminescent Cell Viability Assay, 10 days treatment)
Format: cell-based
Details: Homo sapiens, 240 h, treated for 10 days
Method: Cell growth suppression effects of the synthesized compounds on NCI-H1417 cells were identified. The cells were treated with the synthesized compounds for 10 days. Then, in order to test the cell growth suppression, CellTiter-Glo Luminescent Cell Viability Assay (available from Promega, USA) was used. This test is to measure emission signals proportional to the number of ATPs based on a fixed amount of ATPs, which represents the presence of metabolically active cells, thereby determining the number of viable cells. The results are expressed as a Gl50 value. As for a control, GSK2879552 (available from GlaxoSmithKline USA) was used.

Q: `O=C(O)c1ccc(CN2CCC(CN[C@@H]3C[C@H]3c3ccccc3)CC2)cc1` [Control, GSK2879552, reference compound] was tested. Which GI50 did it give?
A: 311 nM

Q: `CCN(CC)c1ccc(-n2c(-c3ccc(C#N)c(F)c3)nc3c(N4CCC[C@@H](N)C4)ccnc32)cc1` [Example 21, (R)-4-(7-(3-aminopiperidine-1-yl)-3-(4-(diethylamino)phenyl)-3H-imidazo[4,5-b]pyridine-2-yl)-2-fluorobenzonitrile] was tested. Which GI50 did it give?
A: 27 nM

Q: With `N#Cc1ccc(-c2nc3c(N4CCC[C@@H](N)C4)ccnc3n2-c2ccc(OC3CCCC3)cc2F)cc1F` [Example 30] as the compound, how does the GI50 read?
A: 62 nM

Q: Which GI50 does the source give for `N#Cc1ccc(-c2nc3c(N4CCC[C@@H](N)C4)ccnc3n2-c2ccc(N3CCOCC3)cc2F)cc1F` [Example 33, (R)-4-(7-(3-aminopiperidine-1-yl)-3-(2-fluoro-4-morpholinophenyl)-3H-imidazo[4,5-b]pyridine-2-yl)-2-fluorobenzonitrile] here?
A: 44 nM

Q: Which GI50 does the source give for `CN1CCN(c2ccc(-n3c(-c4ccc(C#N)c(F)c4)nc4c(N5CCC[C@@H](N)C5)ccnc43)c(F)c2)CC1` [Example 34] here?
A: 101 nM

Q: With `N#Cc1ccc(-c2nc3c(N4CCC[C@@H](N)C4)ccnc3n2-c2cccc(OCCN3CCOCC3)c2)cc1F` [Example 37, (R)-4-(7-(3-aminopiperidine-1-yl)-3-(3-(2-morpholinoethoxy)phenyl)-3H-imidazo[4,5-b]pyridine-2-yl)-2-fluorobenzonitrile] as the compound, how does the GI50 read?
A: 148 nM

Q: Which GI50 does the source give for `N#Cc1ccc(-c2nc3c(N4CCC[C@@H](N)C4)ccnc3n2-c2ccc(C(=O)N3CCOCC3)cc2)cc1F` [Example 38, (R)-4-(7-(3-aminopiperidine-1-yl)-3-(4-(morpholino-4-carbonyl)phenyl)-3H-imidazo[4,5-b]pyridine-2-yl)-2-fluorobenzonitrile] here?
A: 612 nM

Q: Which GI50 does the source give for `N#Cc1ccc(-c2nc3c(N4CCC[C@@H](N)C4)ccnc3n2-c2ccc(O)cc2)cc1F` [Example 40, (R)-4-(7-(3-aminopiperidine-1-yl)-3-(4-hydroxyphenyl)-3H-imidazo[4,5-b]pyridine-2-yl)-2-fluorobenzonitrile] here?
A: 42 nM

Q: `N#Cc1ccc(-c2nc3c(N4CCC[C@@H](N)C4)ccnc3n2-c2ccc3c(c2)CCC3)cc1F` [Example 42, (R)-4-(7-(3-aminopiperidine-1-yl)-3-(2,3-dihydro-1H-indene-5-yl)-3H-imidazo[4,5-b]pyridine-2-yl)-2-fluorobenzonitrile] was tested. Which GI50 did it give?
A: 26 nM

Q: For `CC(C)c1ccc(-n2c(-c3ccc(C#N)c(F)c3)nc3c(N4CCC[C@@H](N)C4)ccnc32)cc1` [Example 43, (R)-4-(7-(3-aminopiperidine-1-yl)-3-(4-isopropylphenyl)-3H-imidazo[4,5-b]pyridine-2-yl)-2-fluorobenzonitrile], which GI50 is on record?
A: 60 nM

Q: For `Cn1ccc2cc(-n3c(-c4ccc(C#N)c(F)c4)nc4c(N5CCC[C@@H](N)C5)ccnc43)ccc21` [Example 44, (R)-4-(7-(3-aminopiperidine-1-yl)-3-(1-methyl-1H-indole-5-yl)-3H-imidazo(4,5-b)pyridine-2-yl)-2fluorobenzonitrile], which GI50 is on record?
A: 171 nM

Q: How did the GI50 turn out when `Cc1ccc(-n2c(-c3ccc(C#N)c(F)c3)nc3c(N4CCC[C@@H](N)C4)ccnc32)nc1` [Example 45, (R)-4-(7-(3-aminopiperidine-1-yl)-3-(5-methylpyridine-2-yl)-3H-imidazo[4,5-b]pyridine-2-yl)-2-fluorobenzonitrile] was run?
A: 171 nM

Q: For `N#Cc1ccc(-c2nc3c(N4CCC[C@@H](N)C4)ccnc3n2-c2ccc(C3CCCCC3)cc2)cc1F` [Example 46, (R)-4-(7-(3-aminopiperidine-1-yl)-3-(4-cyclohexylphenyl)-3H-imidazo[4,5-b]pyridine-2-yl)-2-fluorobenzonitrile], which GI50 is on record?
A: 303 nM

Q: With `C=Cc1cccc(-n2c(-c3ccc(C#N)c(F)c3)nc3c(N4CCC[C@@H](N)C4)ccnc32)c1` [Example 47, (R)-4-(7-(3-aminopiperidine-1-yl)-3-(3-vinylphenyl)-3H-imidazo[4,5-b]pyridine-2-yl)-2-fluorobenzonitrile] as the compound, how does the GI50 read?
A: 360 nM

Q: Which GI50 does the source give for `COCCCN(C)c1ccc(-n2c(-c3ccc(C#N)c(F)c3)nc3c(N4CCC[C@@H](N)C4)ccnc32)cc1` [Example 48, (R)-4-(7-(3-aminopiperidine-1-yl)-3-(4-((3-methoxypropyl)(methyl)amino)phenyl)-3H-imidazo[4,5-b]pyridine-2-yl)-2-fluorobenzonitrile] here?
A: 23 nM

Q: Which GI50 does the source give for `CCCCCCc1ccc(-n2c(-c3ccc(C#N)c(F)c3)nc3c(N4CCC[C@@H](N)C4)ccnc32)cc1` [Example 51, (R)-4-(7-(3-aminopiperidine-1-yl)-3-(4-hexylphenyl)-3H-imidazo[4,5-b]pyridine-2-yl)-2-fluorobenzonitrile] here?
A: 242 nM

Q: How did the GI50 turn out when `CO[C@H]1CCN(c2ccc(-n3c(-c4ccc(C#N)cc4F)nc4c(N5CCC[C@@H](N)C5)ccnc43)c(F)c2)C1` [Example 52, 4-(7-((R)-3-aminopiperidine-1-yl)-3-(2-fluoro-4-((S)-3-methoxypyrrolidine-1-yl)phenyl)-3H-imidazo[4,5-b]pyridine-2-yl)-3-fluorobenzonitrile] was run?
A: 30 nM

Q: How did the GI50 turn out when `COc1cc(C#N)ccc1-c1nc2c(N3CCC[C@@H](N)C3)ccnc2n1-c1ccc(N2CC[C@H](OC)C2)cc1F` [Example 53, 4-(7-((R)-3-aminopiperidine-1-yl)-3-(2-fluoro-4-((S)-3-methoxypyrrolidine-1-yl)phenyl)-3H-imidazo[4,5-b]pyridine-2-yl)-3-methoxybenzonitrile] was run?
A: > 1000 nM

Q: Which GI50 does the source give for `Cn1ccc2cc(-n3c(-c4ccc(C#N)c(F)c4)nc4c(N5CCC[C@@H](N)C5)ccnc43)cnc21` [Example 54, (R)-4-(7-(3-aminopiperidine-1-yl)-3-(1-methyl-1H-pyrrolo[2,3-b]pyridine-5-yl)-3H-imidazo[4,5-b]pyridine-2-yl)-2-fluorobenzonitrile] here?
A: 21 nM

Q: Which GI50 does the source give for `Cn1ncc2cc(-n3c(-c4ccc(C#N)c(F)c4)nc4c(N5CCC[C@@H](N)C5)ccnc43)ccc21` [Example 55, (R)-4-(7-(3-aminopiperidine-1-yl)-3-(1-methyl-1H-indazole-5-yl)-3H-imidazo[4,5-b]pyridine-2-yl)-2-fluorobenzonitrile] here?
A: 7.9 nM

Q: How did the GI50 turn out when `CO[C@H]1CCCN(c2ccc(-n3c(-c4ccc(C#N)c(F)c4)nc4c(N5CCC[C@@H](N)C5)ccnc43)c(F)c2)C1` [Example 56] was run?
A: 14 nM

Q: How did the GI50 turn out when `CN(C)C1CCN(c2ccc(-n3c(-c4ccc(C#N)c(F)c4)nc4c(N5CCC[C@@H](N)C5)ccnc43)c(F)c2)C1` (stereo partly drawn) [Example 57, 4-(7-((R)-3-aminopiperidine-1-yl)-3-(4-(3-(dimethylamino)pyrrolidine-1-yl)-2-fluorophenyl)-3H-imidazo[4,5-b]pyridine-2-yl)-2-fluorobenzonitrile] was run?
A: 53 nM

Q: For `N#Cc1ccc(-c2nc3c(N4CCC[C@@H](N)C4)ccnc3n2-c2ccc3scnc3c2)cc1F` [Example 58, (R)-4-(7-(3-aminopiperidine-1-yl)-3-(benzo[d]thiazole-5-yl)-3H-imidazo[4,5-b]pyridine-2-yl)-2-fluorobenzonitrile], which GI50 is on record?
A: 64 nM

Q: Which GI50 does the source give for `CO[C@H]1CCN(c2ccc(-n3c(-c4ccc(C#N)c(F)c4)nc4c(N5C6CCC5CC(N)C6)ccnc43)c(F)c2)C1` (stereo partly drawn) [Example 63, 4-(7-(3-amino-8-azabicyclo[3.2.1]octane-8-yl)-3-(2-fluoro-4-((S)-3-methoxypyrrolidine-1-yl)phenyl)-3H-imidazo[4,5-b]pyridine-2-yl)-2-fluorobenzonitrile] here?
A: 290 nM

Q: With `CO[C@H]1CCN(c2ccc(-n3c(-c4ccc(C#N)c(F)c4)nc4c(N5CCC6(CCNC6)C5)ccnc43)c(F)c2)C1` (stereo partly drawn) [Example 65, 2-fluoro-4-(3-(2-fluoro-4-((S)-3-methoxypyrrolidine-1-yl)phenyl)-7-(2,7-diazaspiro[4.4]nonane-2-yl)-3H-imidazo[4,5-b]pyridine-2-yl)benzonitrile] as the compound, how does the GI50 read?
A: 39 nM

Q: How did the GI50 turn out when `CO[C@H]1CCN(c2ccc(-n3c(-c4ccc(C#N)c(F)c4)nc4c(N5CCC6(CC5)CNC6)ccnc43)c(F)c2)C1` [Example 66, (S)-2-fluoro-4-(3-(2-fluoro-4-(3-methoxypyrrolidine-1-yl)phenyl)-7-(2,7-diazaspiro[3.5]nonane-7-yl)-3H-imidazo[4,5-b]pyridine-2-yl)benzonitrile] was run?
A: 23 nM

Q: For `CO[C@H]1CCN(c2ccc(-n3c(-c4ccc(C#N)c(F)c4)nc4c(N5CC6COCC6C5)ccnc43)c(F)c2)C1` (stereo partly drawn) [Example 68, 2-fluoro-4-(3-(2-fluoro-4-((S)-3-methoxypyrrolidine-1-yl)phenyl)-7-(tetrahydro-1H-furo[3,4-c]pyrrole-5(3H)-yl)-3H-imidazo[4,5-b]pyridine-2-yl)benzonitrile], which GI50 is on record?
A: > 1000 nM

Q: `CO[C@H]1CCN(c2ccc(-n3c(-c4ccc(C#N)c(F)c4)nc4c(N5CC6(CNC6)C5)ccnc43)c(F)c2)C1` [Example 69, (S)-2-fluoro-4-(3-(2-fluoro-4-(3-methoxypyrrolidine-1-yl)phenyl)-7-(2,6-diazaspiro[3.3]heptane-2-yl)-3H-imidazo[4,5-b]pyridine-2-yl) benzonitrile] was tested. Which GI50 did it give?
A: > 1000 nM

Q: With `CO[C@H]1CCN(c2ccc(-n3c(-c4ccc(C#N)c(F)c4)nc4c(N5CCC6(CCNCC6)CC5)ccnc43)c(F)c2)C1` [Example 70, (S)-2-fluoro-4-(3-(2-fluoro-4-(3-methoxypyrrolidine-1-yl)phenyl)-7-(3,9-diazaspiro[5.5]undecan-3-yl)-3H-imidazo[4,5-b]pyridine-2-yl) benzonitrile] as the compound, how does the GI50 read?
A: 34 nM

Q: How did the GI50 turn out when `CO[C@H]1CCN(c2ccc(-n3c(-c4ccc(C#N)c(F)c4)nc4c(N5CC6CNCC(C6)C5)ccnc43)c(F)c2)C1` [Example 71, 4-(7-(3,7-diazabicyclo[3.3.1]nonane-3-yl)-3-(2-fluoro-4-((S)-3-methoxypyrrolidine-1-yl)phenyl)-3H-imidazo[4,5-b]pyridine-2-yl)-2-fluorobenzonitrile] was run?
A: 44 nM
